In patent US20050101595A1, “N-containing cycloalkyl-substituted amino-thiazole derivatives and pharmaceutical compositions for inhibiting cell proliferation and methods for their use” (PFIZER INC., priority 2003, published 2005):
Structures can show the parent of a compound that is named as a salt. Where two headings read alike, the source gives them in different places.

Tests used:
[1] = molecular target: human CDK4 and genetically truncated (1-264) cyclin D3 (Homo sapiens, UniProt P11802); experiment: Inhibition of CDK4/Cyclin D Retinoblastoma Kinase Activity; assay type: biochemical; conditions: for Ki: apparent Ki, CDK4/truncated cyclin D3, Rb fragment substrate, 25 μM ATP
Chain of human CDK4 and genetically truncated (1-264) cyclin D3 (P11802 whole entry, the tested form may be a part): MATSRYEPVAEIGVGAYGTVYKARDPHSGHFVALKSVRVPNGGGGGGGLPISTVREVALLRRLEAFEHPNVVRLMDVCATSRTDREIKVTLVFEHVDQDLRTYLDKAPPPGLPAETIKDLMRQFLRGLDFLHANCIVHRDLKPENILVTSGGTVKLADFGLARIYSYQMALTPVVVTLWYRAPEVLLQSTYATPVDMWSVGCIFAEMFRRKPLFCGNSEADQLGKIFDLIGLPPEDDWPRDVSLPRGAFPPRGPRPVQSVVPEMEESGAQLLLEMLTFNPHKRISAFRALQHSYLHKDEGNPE
Chain of human CDK4 and genetically truncated (1-264) cyclin D3 (P30281 1-264 partner): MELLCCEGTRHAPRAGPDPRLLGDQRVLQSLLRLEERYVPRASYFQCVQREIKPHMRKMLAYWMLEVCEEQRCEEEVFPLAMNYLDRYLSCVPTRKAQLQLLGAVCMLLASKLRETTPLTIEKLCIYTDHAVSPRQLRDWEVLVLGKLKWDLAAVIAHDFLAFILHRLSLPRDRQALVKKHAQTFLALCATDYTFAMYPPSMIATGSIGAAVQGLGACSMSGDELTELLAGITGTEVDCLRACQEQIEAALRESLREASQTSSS
Outline: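 Apparent Ki values come from competitive or competitive tight-binding inhibition fits of background-corrected 32P/33P incorporation into His-tagged Rb fragment (386-928), captured on nitrocellulose. Reaction: 5 nM insect-cell-expressed human CDK4 with cyclin D3 (1-264), 25 μM ATP, pH 7.4 HEPES, 2% DMSO, 30° C., 20 min, extended to 60 min for tight-binding inhibitors.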

[2] = molecular target: CDK2/Cyclin A (Homo sapiens, UniProt P24941); experiment: Inhibition of CDK2/Cyclin A Retinoblastoma Kinase Activity; assay type: biochemical; conditions: for Ki: apparent Ki, CDK2/proteolyzed cyclin A, Rb fragment substrate, 25 μM ATP; for CDK2 % Inhibition At 0.03 μM: Table 2
Outline: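 Radiometric filter-binding readout of phosphate transfer to an Rb substrate fragment by purified CDK2/truncated cyclin A at 10 or 19 nM. Run at pH 7.4 with 25 μM ATP, 30 °C, 60–75 min, linear rates; background without enzyme subtracted, Ki from competitive-inhibition models.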

[3] = tested on: HCT-116 cell line; experiment: Inhibition of cell growth, tetrazolium salt (MTT) assay; assay type: cell-based; conditions: for IC50: Homo sapiens, HCT-116, 120 h, MTT, three to five days, read-out: HCT-116 IC50; for HCT-116 % Inhibition at 0.25 μM: 0.25 μM compound
Outline: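 First, cells were seeded in McCoy's 5A medium and held 4 h. Next, inhibitor concentrations in 0.5% (v/v) DMSO were applied for three to five days at 37° C, 5% CO2. Finally, after 4 h with 0.2 mg/mL MTT and medium removal, solubilized formazan was measured at 540 nm.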

[4] = 0.1 μM compound, HCT-116, Table 4
[5] = 0.1 μM compound, HCT-116, Table 3

CC(C)(C)NCCOc1ccc(S(=O)(=O)N2CCC(Nc3nc(N)c(C(=O)c4c(F)cccc4F)s3)CC2)cn1 [Example H20, (4-Amino-2-{1-[6-(2-tert-butylamino-ethoxy)-pyridine-3-sulfonyl]-piperidin-4-ylamino}-thiazol-5-yl)-(2,6-difluoro-phenyl)-methanone Hydrochloride Salt] gave a Ki [1] of 0.51 nM, a Ki [2] of 1.5 nM and an IC50 ([3]; first HCT-116 column (c4)) of 380 nM. It also gave an IC50 ([3]; second HCT-116 column (c5)) of 3000 nM.

In the case of Nc1nc(NC2CCN(C(=O)OC3CCCC3)CC2)sc1C(=O)c1c(F)cccc1F [Example R87], the “CDK4 % Inhibition at 0.03 μM” value ([1]; at 0.03 μM) is reported as 28%, the “CDK2 % Inhibition at 0.03 μM” value ([2]; at 0.03 μM) is reported as 17% and the “HCT-116 % Inhibition at 0.1 μM” value ([3]; HCT-116 cells, at 0.1 μM) is reported as 0%. For the same compound, the “HCT-116 5 Inhibition at 0.25 μM” value ([3]; HCT-116 cells) was 36.

For Nc1nc(NC2CCN(S(=O)(=O)c3ccc(-c4ccncc4)nc3)CC2)sc1C(=O)c1c(F)cccc1F [Example I7, 1-{4-Amino-2-[1-([2,4′]bipyridinyl-5-sulfonyl)-piperidinin-4-ylamino]-thiazol-5-yl}-1-(2,6-difluoro-phenyl)-methanone], the Ki [1] was 0.38 nM, the Ki [2] was < 1 nM and the IC50 ([3]; first HCT-116 column (c4)) was 1300 nM. For the same compound, the IC50 ([3]; second HCT-116 column (c5)) was 5000 nM.

In the case of Cc1ccc(C(=O)N2CCC(Nc3nc(N)c(C(=O)c4c(F)cccc4F)s3)CC2)cc1 [Example Q35], the “CDK4 % Inhibition at 0.03 μM” value ([1]; 0.03 μM compound, Table 4) is reported as 64%, the “CDK2 % Inhibition at 0.03 μM” value ([2]; 0.03 μM compound, Table 4) is reported as 35% and the “HCT-116 % Inhibition at 0.1 μM” value [3, 4] is reported as 3%. For the same compound, the “HCT-116 % Inhibition at 0.25 μM” value ([3]; HCT-116, Table 4) was 21%.

In the case of CCc1ccc(C(=O)N2CCC(Nc3nc(N)c(C(=O)c4c(F)cccc4F)s3)CC2)cc1 [Example R157], the “CDK4 % Inhibition at 0.03 μM” value ([1]; at 0.03 μM) is reported as 47%, the “CDK2 % Inhibition at 0.03 μM” value ([2]; at 0.03 μM) is reported as 22% and the “HCT-116 % Inhibition at 0.1 μM” value ([3]; HCT-116 cells, at 0.1 μM) is reported as 0%. For the same compound, the “HCT-116 5 Inhibition at 0.25 μM” value ([3]; HCT-116 cells) was 42.

For Nc1nc(NC2CCN(C(=O)c3ccc4c(c3)C(=O)OC4=O)CC2)sc1C(=O)c1c(F)cccc1F [Example Q66], the “CDK4 % Inhibition at 0.03 μM” value ([1]; 0.03 μM compound, Table 4) was 29%, the “CDK2 % Inhibition at 0.03 μM” value ([2]; 0.03 μM compound, Table 4) was 7% and the “HCT-116 % Inhibition at 0.1 μM” value [3, 4] was 7%. The “HCT-116 % Inhibition at 0.25 μM” value ([3]; HCT-116, Table 4) was 34%.

In the case of Nc1nc(NC2CCN(S(=O)(=O)c3ccc(F)cc3F)CC2)sc1C(=O)c1c(F)cccc1F [Example P34], the “CDK4 % Inhibition at 0.03 μM” value ([1]; 0.03 μM compound, Table 3) is reported as 58%, the “CDK2 % Inhibition at 0.03 μM” value ([2]; 0.03 μM compound, Table 3) is reported as 60% and the “HCT-116 % Inhibition at 0.1 μM” value [3, 5] is reported as 8%. For the same compound, the “HCT-116 % Inhibition at 0.25 μM” value ([3]; HCT-116, Table 3) was 23%.

In the case of CCC(C(=O)N1CCC(Nc2nc(N)c(C(=O)c3c(F)cccc3F)s2)CC1)c1ccccc1 (stereo not drawn) [Example R10], the “CDK4 % Inhibition at 0.03 μM” value ([1]; at 0.03 μM) is reported as 29%, the “CDK2 % Inhibition at 0.03 μM” value ([2]; at 0.03 μM) is reported as 5% and the “HCT-116 % Inhibition at 0.1 μM” value ([3]; HCT-116 cells, at 0.1 μM) is reported as 0%. For the same compound, the “HCT-116 5 Inhibition at 0.25 μM” value ([3]; HCT-116 cells) was 40.

In the case of CN(CCO)c1ccc(S(=O)(=O)N2CCC(Nc3nc(N)c(C(=O)c4c(F)cccc4F)s3)CC2)cn1 [Example G10], the Ki [1] is reported as 1.2 nM, the Ki [2] is reported as < 1 nM and the IC50 ([3]; first HCT-116 column (c4)) is reported as 670 nM. The IC50 ([3]; second HCT-116 column (c5)) was > 5000 nM.

With CCCNC(=O)N1CCC(Nc2nc(N)c(C(=O)c3c(F)cccc3F)s2)CC1 [Example O33] the “CDK4 % Inhibition at 0.03 μM” value ([1]; 0.03 μM compound, Table 2) was −3%, the “CDK2 % Inhibition At 0.03 μM” value ([2]; 0.03 μM compound) was 30% and the “HCT-116 % Inhibition at 0.25 μM” value ([3]; HCT-116, Table 2) was 31%.

In the case of CCOC(=O)CCCCCNC(=O)N1CCC(Nc2nc(N)c(C(=O)c3c(F)cccc3F)s2)CC1 [Example O70], the “CDK4 % Inhibition at 0.03 μM” value ([1]; 0.03 μM compound, Table 2) is reported as 7%, the “CDK2 % Inhibition At 0.03 μM” value ([2]; 0.03 μM compound) is reported as 28% and the “HCT-116 % Inhibition at 0.25 μM” value ([3]; HCT-116, Table 2) is reported as 52%.

Nc1nc(NC2CCN(S(=O)(=O)c3ccc(N4CCN(C=O)CC4)nc3)CC2)sc1C(=O)c1c(F)cccc1F [Example G16, Trifluoroacetic Acid Salt] gave a Ki [1] of 0.63 nM, a Ki [2] of 0.51 nM and an IC50 ([3]; first HCT-116 column (c4)) of 290 nM. For the same compound, the IC50 ([3]; second HCT-116 column (c5)) was > 5000 nM.

With N#Cc1ccc(NC(=O)N2CCC(Nc3nc(N)c(C(=O)c4c(F)cccc4F)s3)CC2)cc1 [Example O56] the “CDK4 % Inhibition at 0.03 μM” value ([1]; 0.03 μM compound, Table 2) was 9%, the “CDK2 % Inhibition At 0.03 μM” value ([2]; 0.03 μM compound) was 29% and the “HCT-116 % Inhibition at 0.25 μM” value ([3]; HCT-116, Table 2) was 37%.

Nc1nc(NC2CCN(S(=O)(=O)c3ccc(Oc4ccccc4)cc3)CC2)sc1C(=O)c1c(F)cccc1F [Example P84] was tested, and the “CDK4 % Inhibition at 0.03 μM” value ([1]; 0.03 μM compound, Table 3) was 38%, the “CDK2 % Inhibition at 0.03 μM” value ([2]; 0.03 μM compound, Table 3) was 28% and the “HCT-116 % Inhibition at 0.1 μM” value [3, 5] was 10%. For the same compound, the “HCT-116 % Inhibition at 0.25 μM” value ([3]; HCT-116, Table 3) was 26%.

COc1cc(OC)cc(C(=O)N2CCC(Nc3nc(N)c(C(=O)c4c(F)cccc4F)s3)CC2)c1 [Example R137] was tested, and the “CDK4 % Inhibition at 0.03 μM” value ([1]; at 0.03 μM) was 73%, the “CDK2 % Inhibition at 0.03 μM” value ([2]; at 0.03 μM) was 55% and the “HCT-116 % Inhibition at 0.1 μM” value ([3]; HCT-116 cells, at 0.1 μM) was 0%. The “HCT-116 5 Inhibition at 0.25 μM” value ([3]; HCT-116 cells) was 38.
